The source of these data is PubChem BioAssay (NCI).

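Results reflect a 48-hour exposure of cells in 96-well plates to compound at five concentrations. GI50: concentration for 50% inhibition of growth. Definition used: TGI = concentration required for complete inhibition of growth.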

Some test systems named below: LXFL 529 NSCLC; DMS 114 small cell lung; HOP-18 NSCLC; M19-MEL melanoma; DMS 273 small cell lung; MDA-MB-231 breast; MDA-N; XF 498 CNS.
Common to all, as to test: DTP human tumour cell line panel, 48 h

Take `COC(=O)/C(=C\c1ccc(N(CCC#N)CCC#N)cc1)NC(=O)c1cc([N+](=O)[O-])ccc1Cl`: the TGI with LXFL 529 NSCLC, in the experiment on DMS 114 small cell lung, in the experiment on HOP-18 NSCLC, in the experiment with M19-MEL melanoma and with DMS 273 small cell lung was over 100 µM throughout.
In the case of `O=C(Nc1ccc(Cl)c(Cl)c1)Nc1ccccc1O`, in the experiment on MDA-MB-231 breast, the GI50 was 10 µM and the TGI is 34.2 µM.
Consider `Clc1ccc(N=CNc2ccc(-c3nc4ccccc4o3)cc2)cc1`, for which, in the experiment on MDA-MB-231 breast, the GI50 is 25.6 µM and the concentration for total growth inhibition (TGI) was found to be 89.4 µM.
The matching figures for `CCCCCCCCCCN1CCC(N2CCCCC2)CC1`: 1.3 µM and 3.26 µM.
In the case of `CCCCCCCCCCCCOC1C(C(CC(=O)NCCN2CCCC2)NS(=O)(=O)c2cc(Cl)cc(Cl)c2)OC2OC(C)(C)OC21` (configuration not stated), in the experiment with MDA-MB-231 breast, the GI50 was 1.81 µM and the TGI worked out at 3.23 µM.
`O=C(NO)c1ccc(CN(c2cnccn2)c2cnccn2)cc1`: in the experiment with MDA-MB-231 breast, the GI50 was 22.3 µM and the TGI was 63.4 µM.
As for `CC(C(=O)n1c2ccccc2c2ccccc21)N(c1ccccc1)c1ccccc1` (configuration not stated), the concentration for total growth inhibition (TGI) in the experiment with LXFL 529 NSCLC came out at 27.9 µM; in the experiment with DMS 114 small cell lung, 32.5 µM; in the experiment on M19-MEL melanoma it was 32.5 µM; in the experiment with DMS 273 small cell lung, 34.1 µM.
With `O=C(OCc1ccc2c(Cl)cc(Cl)c(O)c2n1)N1CCN(C(=O)c2cc3cc(F)ccc3[nH]2)CC1`, in the experiment on MDA-MB-231 breast, the GI50 was 1.07 µM and the concentration for total growth inhibition (TGI) was over 55.6 µM.
As to `CO/N=C(/C)c1cccc(Nc2cc(-c3ccccc3)nc3ccc(OC)cc23)c1`, in the experiment on MDA-MB-231 breast, the GI50 was 3.49 µM and the concentration for total growth inhibition (TGI) stood at 17.8 µM.
Consider `C=CCN1CC2CON(C(=O)C(OC)(c3ccccc3)C(F)(F)F)C2C1C(C)C` (configuration not stated), for which the results for the GI50 in the experiment on MDA-N and with MDA-MB-231 breast were 31.8 µg/mL and 41.4 µg/mL, respectively.
For `COc1ccc2c3c(Nc4ccc(/C(C)=N/O)cc4)[nH]c4ccccc4c-3c(N=O)c2c1`, in the experiment on MDA-MB-231 breast, the GI50 is 4.8 µM and the TGI turned out to be 24.3 µM.
Take `CC(=O)OCCOCNC(=S)N/N=C/c1ccc(Br)s1`: the concentration for total growth inhibition (TGI) in the experiment with LXFL 529 NSCLC, in the experiment with DMS 114 small cell lung, in the experiment with HOP-18 NSCLC, in the experiment on XF 498 CNS, in the experiment on M19-MEL melanoma and in the experiment on DMS 273 small cell lung was over 100 µM in each case.
`CC(=O)OC1C2CCC1C1C2C2(Cl)C(Cl)=C(Cl)C1(Cl)C2(Cl)Cl` (configuration not stated): the TGI in the experiment with LXFL 529 NSCLC came to 33.9 µM; in the experiment on DMS 114 small cell lung, 26.7 µM; in the experiment on HOP-18 NSCLC, 33.8 µM; in the experiment on XF 498 CNS, 23.1 µM; with M19-MEL melanoma, 27.7 µM; in the experiment with DMS 273 small cell lung it was 25.4 µM.
For the compound `Cc1ncc([N+](=O)[O-])n1CCNS(=O)(=O)CCCn1ncnc1[N+](=O)[O-]`, the TGI in the experiment with MDA-N and in the experiment on MDA-MB-231 breast was over 100 µM in each case.
For `O=C(CSC(c1ccccc1)c1ccccc1)N/N=C/c1ccco1`, in the experiment with MDA-MB-231 breast, the GI50 is 1.35 µM and the TGI was 2.87 µM.
Turning to `CCN(CC)c1cc2oc3cc(N)cc(=N)c-3nc2cc1C`, in the experiment on MDA-MB-231 breast, the GI50 is 6.04 µM and the TGI was over 100 µM.
As to `OCC(O)CNc1ccnc2cc(Cl)ccc12` (configuration not stated), the TGI in the experiment with LXFL 529 NSCLC, in the experiment with DMS 114 small cell lung, with HOP-18 NSCLC, in the experiment on XF 498 CNS and with M19-MEL melanoma was over 100 µM each time.
On to `N.N.NCCCCCCCCCN.O=C([O-])CC(=O)[O-].O=C([O-])CC(=O)[O-].[Pt+4].[Pt+4]`, for which the GI50 in the experiment with LXFL 529 NSCLC, in the experiment with HOP-18 NSCLC and with DMS 273 small cell lung was over 100 µM throughout. Also, the concentration for total growth inhibition (TGI) with LXFL 529 NSCLC, with HOP-18 NSCLC and in the experiment on DMS 273 small cell lung was over 100 µM throughout.
As for `O=C(NCc1ccc(S(=O)(=O)c2cc(F)cc(F)c2)cc1)c1ccc2nccn2c1`, in the experiment with MDA-MB-231 breast, the GI50 is 20 µM and the total growth inhibition concentration (TGI) is over 100 µM.
The matching figures for `N#Cc1ccc(OC(=O)Nc2ccc(Cl)c(Cl)c2)cc1`: 4.42 µM and 23.3 µM.
For `Cc1cccc(N=C2NC(=O)C(CC(=O)Nc3cccc(C)c3C)S2)c1` (configuration not stated), the TGI in the experiment on LXFL 529 NSCLC, with DMS 114 small cell lung, with XF 498 CNS and in the experiment on M19-MEL melanoma was over 100 µM throughout.
As for `Nc1nc(N)nc(CCCc2nc(N)nc(N)n2)n1`, the TGI with MDA-N and with MDA-MB-231 breast was over 100 µM in each case.
On to `Nc1ccccc1SC1CC(=O)N(c2ccc(Cl)c(Cl)c2)C1=O` (configuration not stated), for which, in the experiment on MDA-MB-231 breast, the GI50 is 17.9 µM and the total growth inhibition concentration (TGI) is over 100 µM.
As for `c1ccc(CSc2nc3ccccc3nc2-c2cccs2)cc1`, the TGI with LXFL 529 NSCLC, in the experiment on DMS 114 small cell lung, in the experiment with HOP-18 NSCLC, in the experiment on XF 498 CNS, in the experiment on M19-MEL melanoma and with DMS 273 small cell lung was over 100 µM throughout.
Turning to `Cc1nn(C(=O)c2ccc(Cl)cc2)c2c1C(c1ccc(O)cc1)SC(N)=N2` (configuration not stated), the concentration for total growth inhibition (TGI) with MDA-N and with MDA-MB-231 breast was over 10 µM in each case.
With `C[C@H]1CCC/C=C/[C@@H]2C[C@H](O)C[C@H]2[C@H](O)[C@@H](SCC(O)CO)CC(=O)O1` (some centres not stated), in the experiment on MDA-N, the GI50 is 25.5 µM and the total growth inhibition concentration (TGI) is over 100 µM. In the experiment with MDA-MB-231 breast, the GI50 was 12.1 µM and the concentration for total growth inhibition (TGI) amounted to 28.1 µM.
As for `CCCCc1c2c(nc3c1CCC/C3=C\c1ccccc1)/C(=C/c1ccccc1)CCC2`, the concentration for total growth inhibition (TGI) with LXFL 529 NSCLC, in the experiment on DMS 114 small cell lung, in the experiment with XF 498 CNS, with M19-MEL melanoma and in the experiment with DMS 273 small cell lung was over 100 µM each time.
As to `CC1=CC(=O)C(C(O)(C(F)(F)F)C(F)(F)F)C(C)(C)C1` (configuration not stated), the concentration for total growth inhibition (TGI) with MDA-N and with MDA-MB-231 breast was over 10 µM throughout.
